Data on nine compounds can be found in article PMC4557015, “Structure-Activity Relationships of the Bioactive Thiazinoquinone Marine Natural Products Thiaplidiaquinones A and B” (Marine Drugs, 2015).

Data set [1] concerns Plasmodium falciparum, FcM29-Cameroon strain (chloroquine-resistant). Nature of the data set: In vitro antimalarial activity, P. falciparum FcM29-Cameroon strain. To be noted: for IC50: Plasmodium falciparum, read-out: P. falc. IC50; for activity against P. falciparum (in words): FcM29-Cameroon strain. It is filed as cell-based. The source says:
(§1) Detailed protocols have been reported elsewhere.

For data set [2], the system named is Plasmodium falciparum, NF54 strain (chloroquine sensitive), IEF stage. Briefly: In vitro antimalarial activity, P. falciparum NF54 strain. Type of data set: cell-based.
Excerpt: as §1

In data set [3] the target is Trypanosoma brucei farnesyltransferase (Trypanosoma brucei, UniProt Q57U08+Q580J3). Nature of the data set: Anti-farnesyltransferase assay (T. brucei). It is filed as biochemical.
Excerpt: as §1

Data set [4] addresses Human farnesyltransferase (Homo sapiens, UniProt P49354+P49356). Nature of the data set: Anti-farnesyltransferase assay (human). Type of data set: biochemical. To be noted: average of three assays; read-out: FTase (H) IC50.
Excerpt: as §1

The test system of data set [5] is Jurkat cells. Nature of the data set: Jurkat cell cytotoxicity assay, Annexin V-FITC/PI flow cytometry. Type of data set: cell-based, human. The conditions noted are these: for mode of Jurkat cell death (Annexin V-FITC/PI): 100 μM, 24 h treatment, flow cytometry; for concentration at which toxicity towards Jurkat cells is apparent: 24 h. How it is done:
In addition, by using propidium iodide (PI) as a probe, from the observation of treated cells having a significant loss of nuclear DNA in combination with ROS production it was concluded that both 1 and 2 were inducing apoptosis. […] For our assessment of the mechanism of cell death, we used the combination of Annexin V-FITC and PI stains to allow us to evaluate the ability of test compounds 1–6 to induce apoptosis or necrosis (or both) in Jurkat cells. After 24 h treatment in the presence of 100 μM of each test compound, cells were analyzed by flow cytometry to identify live (AnV^−/PI^−), apoptosing (AnV^+/PI^−), necrotic (AnV^−/PI^+) and late apoptotic (AnV^+/PI^+) cells.
Cells were resuspended in cRPMI at 1 × 10^6 cells/mL and 100 μL cells added to individual wells of a 96-well round bottom plate. Compounds were made up in DMSO to 10 mM for a stock solution. A ten-fold dilution series was made for each stock solution in cRPMI from 1 mM to 10 nM and 10 μL of each added to triplicate wells, for final concentrations of 100 μM to 1 nM, along with corresponding DMSO controls. The cells plus compounds were then incubated for 24 h at 37 °C. The cells were washed in ice-cold Annexin V binding buffer (200 mL PBS with 10 mM HEPES, 140 mM NaCl and 2.5 mM CaCl2). The cell pellets were labelled with 5 μL of Annexin V-FITC (BD Pharmingen) for 15 min at 4 °C. Cells were washed again with ice-cold Annexin V buffer and labelled with 10 μL of 5 μg/mL PI for 7 min at 4 °C. Cells were washed and resuspended in FACS buffer, and Annexin V/PI staining analysed using flow cytometry. Annexin V positive cells were undergoing apoptosis, while PI positive cells were necrotic. Double positive cells were dead, while double negative cells were live cells.
(In general: In flow cytometry, cells or beads pass a laser one at a time.)

Data set [6] concerns Jurkat cells. Nature of the data set: Intracellular ROS, DHR123 flow cytometry. It is filed as cell-based, human. To be noted: top test concentration of 100 μM, 30 min. How it is done: In the present study, the presence of ROS in Jurkat cells was determined using dihydrorhodamine 123 (DHR123), a cell permeable probe that becomes fluorescent when oxidized to rhodamine 123 in the presence of ROS [7]. Once the cells were loaded with DHR123, they were then treated with test compounds at a range of concentrations, and the mean fluorescent intensity determined by flow cytometry.
Cells were resuspended in HBSS at 1 × 10^6 cells/mL and 100 μL cells added to individual wells of a 96-well round bottom plate. DHR123 was added to the wells for a final concentration of 500 nM per well and cells incubated for 5 min to allow uptake of DHR123. Compounds were made up in DMSO to 10 mM for a stock solution. A ten-fold dilution series was made for each stock solution in HBSS from 1 mM to 10 nM and 10 μL of each added to triplicate wells, for final concentrations of 100 μM to 1 nM, along with corresponding DMSO controls. The assay was incubated at 37 °C for 30 min, and the cells were washed and resuspended in FACS buffer (PBS with 0.1% BSA and 0.2% sodium azide). Intracellular ROS was measured by flow cytometry analysis of DHR123 uptake.

The subject of data set [7] is human leukemia T cell line Jurkat. Details: method as in PMID 15857147. To be noted: standard cell viability assay; read-out: cytotoxicity towards Jurkat cells IC50; cited from earlier work.
Data set [8] relates to Jurkat cells. Details: method as in PMID 15857147. To be noted: relative to untreated cells; cited from earlier work.
A further data set has as its system MDA-MB-435. Briefly: NCI-60 five-dose in vitro cytotoxicity screening, MDA-MB-435. It is filed as cell-based, human. The conditions noted are these: NCI 5-dose testing.
Excerpt: as §1

Another data set relates to MALME-3M. Nature of the data set: NCI-60 five-dose in vitro cytotoxicity screening, MALME-3M. Type of data set: cell-based, human. To be noted: NCI 5-dose testing.
Excerpt: as §1

The test system of a further data set is Pf K1 strain. Details: method as in PMID 21958335. The conditions noted are these: read-out: antimalarial activity IC50; cited from earlier work.
Setting [9] is: FcM29-Cameroon strain (chloroquine-resistant), average of three assays.
The mark [10] stands for this setting: average of three assays, read-out: FTase (T. b.) IC50.
[11] abbreviates: NF54 strain (chloroquine sensitive), IEF stage, average of two independent assays, read-out: P. falc. IC50.

Like-named read-outs stand apart in the source and are kept apart here.

Chain of Trypanosoma brucei farnesyltransferase (Q580J3 entry or part of it): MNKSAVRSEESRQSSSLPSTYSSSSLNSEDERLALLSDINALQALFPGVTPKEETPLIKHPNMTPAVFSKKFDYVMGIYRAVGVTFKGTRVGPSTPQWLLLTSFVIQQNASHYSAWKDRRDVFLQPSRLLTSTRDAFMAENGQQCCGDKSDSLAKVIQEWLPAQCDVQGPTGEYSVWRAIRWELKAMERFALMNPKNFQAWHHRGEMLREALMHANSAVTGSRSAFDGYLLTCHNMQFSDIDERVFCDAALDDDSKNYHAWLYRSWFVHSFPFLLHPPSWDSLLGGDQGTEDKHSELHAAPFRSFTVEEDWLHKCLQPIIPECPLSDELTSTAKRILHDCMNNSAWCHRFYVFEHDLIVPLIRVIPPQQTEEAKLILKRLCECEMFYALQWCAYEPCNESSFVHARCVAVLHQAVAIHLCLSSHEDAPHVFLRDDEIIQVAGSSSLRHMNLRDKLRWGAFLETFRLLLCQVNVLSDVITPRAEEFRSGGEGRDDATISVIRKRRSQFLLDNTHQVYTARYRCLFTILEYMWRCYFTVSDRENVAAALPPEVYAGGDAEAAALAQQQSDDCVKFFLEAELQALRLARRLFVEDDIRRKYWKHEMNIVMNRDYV
Chain of Trypanosoma brucei farnesyltransferase (Q57U08 entry or part of it): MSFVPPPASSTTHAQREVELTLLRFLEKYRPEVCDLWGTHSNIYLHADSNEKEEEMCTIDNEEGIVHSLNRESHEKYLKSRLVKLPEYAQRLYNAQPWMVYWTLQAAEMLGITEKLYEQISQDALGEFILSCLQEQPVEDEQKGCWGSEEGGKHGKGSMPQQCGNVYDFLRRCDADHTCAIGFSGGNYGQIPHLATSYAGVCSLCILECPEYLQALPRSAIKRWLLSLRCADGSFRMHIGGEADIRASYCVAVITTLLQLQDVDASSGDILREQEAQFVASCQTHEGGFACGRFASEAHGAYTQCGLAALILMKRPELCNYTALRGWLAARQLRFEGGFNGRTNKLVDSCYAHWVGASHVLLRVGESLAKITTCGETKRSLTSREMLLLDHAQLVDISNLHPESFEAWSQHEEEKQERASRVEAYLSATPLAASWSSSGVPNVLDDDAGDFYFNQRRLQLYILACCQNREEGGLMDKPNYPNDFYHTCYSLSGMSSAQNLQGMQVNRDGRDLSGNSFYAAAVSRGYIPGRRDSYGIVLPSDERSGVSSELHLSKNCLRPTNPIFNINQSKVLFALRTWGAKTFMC

In the case of `CCN(CC)CCCC(C)Nc1ccnc2cc(Cl)ccc12` (centres unmarked) [Chloroquine, reference compound], the IC50 (as a rule, the concentration that gives 50% inhibition) in data set [1] amounted to 450 nM; in data set [2] (NF54, read-out: P. falc. IC50), 6.3 nM.

For the compound `CC(C)=CCC/C(C)=C/Cc1cc(O)cc2c1OC(/C=C(\C)CCC=C(C)C)C1=C2C(=O)C2=C(C1=O)S(=O)(=O)CCN2` (centres unmarked) [Compound 1, thiaplidiaquinone A], in data set [1], the “activity against P. falciparum (in words)” value was “inactive”. Moreover, the IC50 was more than 17000 nM in data set [1] (setting [9]), 740 ± 200 nM in data set [3] (setting [10]), 780 ± 170 nM in [4] and approximately 3000 nM in [7]. Also, the “mode of Jurkat cell death (Annexin V-FITC/PI)” value (from here on “mode of Jurkat cell death”) with Jurkat cells [5] was “inducing both necrosis (PI^+/AV^−) and apoptosis (PI^−/AV^+)”. The “concentration at which toxicity towards Jurkat cells is apparent” value (shortened to “concentration”) with Jurkat cells [5] is approximately 100 µM. The “accumulation of intracellular ROS (DHR123 fluorescence)” value (“accumulation … (DHR123 fluorescence)” for short) in the data set on Jurkat cells [6] is “only modest levels of accumulation of intracellular ROS”. Further, in the data set with Jurkat cells [8], the “accumulation of intracellular ROS, % of cells” value was 97%.

`CC(C)=CCC/C(C)=C/Cc1cc2c(cc1O)C1=C(C(=O)C3=C(NCCS3(=O)=O)C1=O)C(/C=C(\C)CCC=C(C)C)O2` (centres unmarked) [Compound 2, thiaplidiaquinone B]: the “activity against P. falciparum (in words)” value in data set [1] was “inactive”. The IC50 in data set [1] (setting [9]) was more than 17000 nM; in [3] (setting [10]), 3040 ± 300 nM; in data set [4], 1220 ± 68 nM; in [7] it was approximately 3000 nM. Moreover, in the data set on Jurkat cells [5], the “mode of Jurkat cell death” value was “cell death almost exclusively via apoptosis”. In addition, in the data set on Jurkat cells [5], the “concentration” value was approximately 100 µM. Further, the “accumulation … (DHR123 fluorescence)” value with Jurkat cells [6] is reported as “only modest levels of accumulation of intracellular ROS”. Moreover, the “accumulation of intracellular ROS, % of cells” value with Jurkat cells [8] is on record as 93%.

As for `CC(C)=CCC/C(C)=C/Cc1cc(O)cc2c1OC(/C=C(\C)CCC=C(C)C)C1=C2C(=O)C2=C(NCCS2(=O)=O)C1=O` (centres unmarked) [Compound 3], the IC50 amounted to 4560 ± 760 nM in [1] (setting [9]), 220 ± 34 nM in data set [3] (setting [10]) and 140 ± 1.7 nM in [4]. The values for the GI50 in the data set on MDA-MB-435 (Homo sapiens) and in the data set on MALME-3M (Homo sapiens) were 52 nM and 100 nM, respectively. Besides, the LC50 (in general, the concentration lethal to half of the exposed cells or organisms) stood at 660 nM with MDA-MB-435 (Homo sapiens) and 3400 nM in the data set on MALME-3M (Homo sapiens). The TGI (in general, the concentration giving total growth inhibition) in the data set on MDA-MB-435 was determined as 180 nM; in the data set with MALME-3M, 600 nM. Moreover, the “mode of Jurkat cell death” value with Jurkat cells [5] was “cell death by necrosis”. Also, in the data set on Jurkat cells [5], the “concentration” value was approximately 100 µM. For the same compound, the “accumulation … (DHR123 fluorescence)” value in the data set on Jurkat cells [6] is reported as “the most potent generator of intracellular ROS”.

For `CC(C)=CCC/C(C)=C/Cc1cc2c(cc1O)C1=C(C(=O)C3=C(C1=O)S(=O)(=O)CCN3)C(/C=C(\C)CCC=C(C)C)O2` (centres unmarked) [Compound 4], the IC50 in data set [1] (setting [9]) stood at 4390 ± 770 nM; in [3] (setting [10]), 98 ± 8 nM; in data set [4], 54 ± 5 nM. In addition, in the data set on Jurkat cells [5], the “mode of Jurkat cell death” value is listed as “dominantly via apoptosis”. For the same compound, in the data set on Jurkat cells [5], the “concentration” value is approximately 100 µM.

For the compound `CC(C)=CCC/C(C)=C/Cc1cc(O)cc2c1OC(/C=C(\C)CCC=C(C)C)C1=C2C(=O)C=CC1=O` (centres unmarked) [Compound 5], the IC50 in data set [2] (setting [11]) worked out at 2200 nM; in data set [3] (setting [10]) it was 3900 ± 600 nM; in data set [4], 3700 ± 600 nM. For the same compound, in the data set with Jurkat cells [5], the “mode of Jurkat cell death” value is “dominated by late stage apoptosis (PI^+/AV^+)”.

On to `CC(C)=CCC/C(C)=C/Cc1cc2c(cc1O)C1=C(C(=O)C=CC1=O)C(/C=C(\C)CCC=C(C)C)O2` (centres unmarked) [Compound 6], for which the 50% inhibitory concentration (IC50) was determined as 2300 nM in [2] (setting [11]), 6160 ± 1400 nM in [3] and 1640 ± 300 nM in data set [4]. For the same compound, in the data set with Jurkat cells [5], the “mode of Jurkat cell death” value is “dominated by late stage apoptosis (PI^+/AV^+)”.

As for `CSCC[C@H](NC(=O)c1ccc(NC[C@@H](N)CS)cc1-c1ccccc1)C(=O)O` [FTI 276, reference compound], the 50% inhibitory concentration (IC50) in data set [3] (setting [10]) is 10 ± 2 nM.

For `COC1=CC(=O)C2=C(C1=O)C(/C=C(\C)CCC=C(C)C)Oc1cc(OC)c(O)c(C/C=C(\C)CCC=C(C)C)c12` (centres unmarked) [scabellone B], in the data set on Pf K1 strain, the IC50 was 4800 nM.
